Measured values: US7067553B2, “Thiourea compounds and the pharmaceutical compositions containing the same” (Pacific Corporation, priority 2000, dated 2006)
pIC50: −log10 of the molar value.

How the values were obtained:
vanilloid receptor = molecular target: T1, vanilloid receptor (Rattus norvegicus, UniProt O35433); test: 45Ca influx test (calcium uptake) in cultured DRG neurons, capsaicin-stimulated; assay type: cell-based; conditions: neonatal SD rat DRG neurons; capsaicin 0.5 μM; 45Ca 10 μCi/ml; 10 min at room temperature; NR: no response
T1 construct: DRG nerve cells from the primary culture of 2–3 days were equilibrated; endogenous in cells; host or cells: primary culture of dorsal root ganglion neurons from neonatal SD rats
Method: 1) Separation of Spinal Dorsal Root Ganglia (DRG) in Newborn Rats and Primary Culture Thereof
Neonatal(2-day old or younger than 2-day old) SD rats were put in ice for 5 minutes to anesthetize and disinfected with 70% ethanol. DRG of all part of spinal cord were dissected (Wood et al., 1988, J. Neurosci. 8, pp3208–3220) and collected in DME/F12 medium to which 1.2 g/l sodium bicarbonate, 50 mg/l gentamycin were added. The DRG were incubated sequentially at 37° C. for 30 min in 200 U/ml collagenase and 2.5 mg/mil trypsin, separately. The ganglia were washed twice with DME/F12 medium supplemented with 10% horse serum, triturated through a fire-polished Pasteur pipette, filtered through Nitex 40 membrane to obtain single cell suspension. This was subjected to centrifugation, then re-suspended in cell culture medium at certain level of cell density. As the cell culture medium, DME/F12 medium supplemented with 10% horse serum, diluted 1:1 with identical medium conditioned by C6 glioma cells (2 days on a confluent monolayer) was used, and NGF(Nerve Growth Factor) was added to final concentration of 200 ng/ml. After the cells were grown 2 days in medium where cytosine arabinoside (Ara-C, 100 μM) was added to kill dividing nonneuronal cells, medium was changed to one without Ara-C. The resuspended cells were plated at a density of 1500–1700 neurons/well onto Terasaki plates previously coated with 10 μg/ml poly-D-ornithine.
2) ^45Ca Influx Experiments
DRG nerve cells from the primary culture of 2–3 days were equilibrated by washing 4 times with HEPES (10 mM, pH 7.4)-buffered Ca^2+, Mg^2+-free HBSS (H-ABSS). The solution in each well was removed from the individual well. Medium containing the test compound plus capsaicin (final concentration 0.5 μM) and ^45Ca (final concentration 10 μCi/ml) in H-HBSS was added to each well and incubated at room temperature for 10 min. Terasalki plates were washed six times with H-HBSS and dried in an oven. To each well, 0.3% SDS (10 μl) was added to elute ^45Ca. After the addition of […] of scintillation cocktail into each well, the amount of ^45Ca influx into neuron was measured by counting radioactivity.

Male ICR mice [1] = test: Analgesic activity test: mouse writhing test by inducing with phenyl-p-quinone; assay type: in vivo; conditions: dose 1 mg/kg intraperitoneally 30 min before phenyl-p-quinone; writhes vs control
Method: (3) Analgesic Activity Test: Mouse Writhing Test by Inducing with Phenyl-p-quinone
Male ICR mice (mean body weight 25 g) were maintained in a controlled lighting environment (12 h on/12 h off for experiment. Animals received an intraperitoneal injection of 0.3 ml of the chemical irritant phenyl-p-quinone (dissolved in saline containing 5% ethanol to be a dose of 4.5 mg/lkg) and 6 min later, the number of abdominal constrictions was counted in the subsequent 6 min period. Animals (10 animals/group) received 0.2 ml of test compounds solution in vehicle of ethanol/Tween 80/saline (10/10/80) intraperitoneally 30 min before the injection of phenyl-p-quinone. A reduction in the number of writhes responding to the test drug compound relative to the number responding in saline control group was considered to be indicative of an analgesic effect. Analgesic effect was calculated by % inhibition equation (% inhibitio=(C−T)/C×100), wherein C and T represent the number of writhes in control and compound-treated group, respectively (Table 2).

Male ICR mice [2] = test: Antiinflammatory activity test: TPA-induced mouse ear edema test; assay type: in vivo; conditions: dose 1 mg/ear topical; TPA 2.5 μg; ear weight 24 h after TPA
Method: (4) Antiinflammatory Activity Test: TPA(12-O-tetradecanoylphorbol 13-acetate)-induced Mouse Ear Edema Test
Male ICR mice(body weight 25–30 g), 10 animals/group, were treated topically on the right ear with 30 μl of TPA (2.5 μg) solution in acetone and after 15 min. 30 μl of acetone or test compound solution in acetone was applied topically. After six hours, an identical treatment was applied again. After twenty four hours following the treatment of TPA, the animals were sacrificed and ear tissue was dissected using 6 mm-diameter punch. Ear tissue dissected were weighed to the nearest 0.1 mg on an electrobalance. The increased weight of the tissue compared to control group was considered as an index of inflammation. The percent inhibition is defined by the following equation: % inlibition=(C−T)/C×100, wherein C and T represent an increase of ear weight in TPA-treated and TPA+drug-treated group, respectively.

T1 sequence (O35433 whole entry): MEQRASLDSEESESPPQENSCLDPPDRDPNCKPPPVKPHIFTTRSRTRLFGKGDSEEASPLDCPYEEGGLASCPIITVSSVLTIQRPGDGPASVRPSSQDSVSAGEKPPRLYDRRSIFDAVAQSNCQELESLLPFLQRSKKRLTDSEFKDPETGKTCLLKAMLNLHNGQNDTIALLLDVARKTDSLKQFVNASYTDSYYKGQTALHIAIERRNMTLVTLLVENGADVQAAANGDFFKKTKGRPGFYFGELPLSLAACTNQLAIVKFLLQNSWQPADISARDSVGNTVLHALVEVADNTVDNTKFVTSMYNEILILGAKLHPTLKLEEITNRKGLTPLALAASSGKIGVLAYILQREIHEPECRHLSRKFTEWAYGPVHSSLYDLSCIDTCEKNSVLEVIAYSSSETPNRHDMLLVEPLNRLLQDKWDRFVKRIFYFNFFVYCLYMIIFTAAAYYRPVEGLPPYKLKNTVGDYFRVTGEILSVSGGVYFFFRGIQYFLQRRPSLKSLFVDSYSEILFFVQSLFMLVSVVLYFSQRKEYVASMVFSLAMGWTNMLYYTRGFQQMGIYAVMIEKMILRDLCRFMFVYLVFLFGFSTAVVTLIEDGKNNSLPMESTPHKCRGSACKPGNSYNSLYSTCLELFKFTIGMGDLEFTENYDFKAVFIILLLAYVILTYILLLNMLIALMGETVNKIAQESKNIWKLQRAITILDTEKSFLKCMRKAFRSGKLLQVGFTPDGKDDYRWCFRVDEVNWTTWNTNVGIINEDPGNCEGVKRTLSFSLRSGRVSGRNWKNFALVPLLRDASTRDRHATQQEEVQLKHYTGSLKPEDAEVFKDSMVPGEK

| pIC50 (vanilloid receptor) | Structure (SMILES) | Analgesic effect (% Inhibition) (Male ICR mice [1]) [%] | Anti-inflammatory effect (% Inhibition) (Male ICR mice [2]) [%] |
| --- | --- | --- | --- |
| 4.42 | COc1cc(CNC(=S)NCC(COC(=O)c2ccccc2)Cc2ccc(C)c(C)c2)ccc1NS(C)(=O)=O (stereo not shown) [Example 13] | – | – |
| 4.89 | Cc1ccc(CC(CN/C(S)=N/Cc2ccc(NS(C)(=O)=O)cc2)COC(=O)c2ccccc2)cc1C (stereo not shown) [Example 9] | – | – |
| 5.60 | CC(C)(C)C(=O)OCC(C/N=C(\S)NCc1ccc(NS(C)(=O)=O)cc1)Cc1ccc(C(C)(C)C)cc1 (stereo not shown) [Example 10] | – | – |
| < 4.30 | COc1cc(C/N=C(\S)NCC(COC(=O)c2ccccc2)Cc2ccc(C(C)(C)C)cc2)ccc1NS(C)(=O)=O (stereo not shown) [Example 15] | – | – |
| < 4.30 | CC(C)(C)c1ccc(CC(CNC(=S)NCc2ccc(NS(C)(=O)=O)cc2)COC(=O)c2ccccc2)cc1 (stereo not shown) [Example 11] | – | – |
| 5.96 | Cc1ccc(CCC(CNC(=S)NCc2ccc(NS(C)(=O)=O)cc2)COC(=O)C(C)(C)C)cc1C (stereo not shown) [Example 16] | – | – |
| 5.74 | CC(C)(C)C(=O)OCC(CCc1ccc(C(C)(C)C)cc1)CNC(=S)NCc1ccc(NS(C)(=O)=O)cc1 (stereo not shown) [Example 17] | – | – |
| 6.17 | COc1cc(CNC(=S)NCC(COC(=O)C(C)(C)C)Cc2ccc(C)c(C)c2)ccc1NS(C)(=O)=O (stereo not shown) [Example 12] | 65 | 41 |
